The values below are quoted from earlier work in patent publication US20120065069A1, “AGENT FOR REDUCING NICOTINE AND HARMFUL COMPONENTS IN TOBACCO LEAVES FOR USE IN FIELD CULTIVATION OF TOBACCO” (TOBACCO RESEARCH INSTITUTE OF HUBEI PROVINCE, priority 2009, published 2012).

Structures are written as SMILES.

One series has as its system flue-cured tobacco. To be noted: for effect in nicotine reduction: Feng Ding thesis 2006, flue-cured tobacco; for effect in reducing the nicotine content: single ingredient, flue-cured tobacco, Liu et al. 2005 (IAA), Gao et al. 2005 (α-NAA, variety K326).
The next series relates to bean seedling. To be noted: 2 mmol/L salicylic acid.
For a further series, the system named is corn. The following applies: 0.5 mmol/L salicylic acid.

With `O=C(O)COc1ccc(Cl)cc1Cl` [2,4-D, 2,4-dichlorophenoxyacetic acid], the “effect in nicotine reduction” value with flue-cured tobacco is “significant effects”.

For the compound `C[N+](C)(C)CCO.[Cl-]` [CC, choline chloride], the “effect in nicotine reduction” value in the series on flue-cured tobacco is on record as “significant effects”.

Consider `O=C(O)Cc1c[nH]c2ccccc12` [indolylacetic acid], for which the “effect in reducing the nicotine content” value with flue-cured tobacco was “certain effects”.

Regarding `O=C(O)Cc1cccc2ccccc12` [naphthylacetic acid], the “effect in reducing the nicotine content” value in the series with flue-cured tobacco is “certain effects”.

Turning to `O=C(O)c1ccccc1O` [salicylic acid], in the series on bean seedling, the “effect on damage of drought stress to bean seedling” value is listed as “alleviate the damage of drought stress”. The “effect on tolerance of corn to low temperature” value in the series with corn was “enhance the tolerance”.
